Measurements: patent US9782385B2, “Artificial tears solution combination” (National Health Research Institutes, priority 2015, dated 2017)

How the values were obtained:
[1] = test system: inflammatory cytokines (IL-1β, IL-6, IL-8, and TNF-α); experiment: Gene expression experiment for inflammatory cytokines (Q-PCR) in LPS-induced HCEC; format: cell-based, Human; conditions: LPS 500 ng/ml induced HCEC, 2 hours with test material; compared with the other groups
Procedure: In this experiment, firstly, cultivate the Human Corneal Epithelial Cells (HCEC) for 48 hours, then utilize Lipopolysaccharide (LPS) at concentration of 500 ng/ml to induce HCEC for 3 hours, to make it to produce inflammatory reaction. Afterwards, add in the compound of EGCG and HA to cultivate with HCEC for 2 hours. The Gene Expression Experiment to evaluate Inflammatory cytokines was conducted for 3 days, and the samples for this experiment were obtained by collecting these cells on the third day. Firstly, utilize Trizol reagent to extract Ribonucleic Acid (RNA) of these cells, and then utilize the High-Capacity cDNA Reverse Transcription Kits made by manufacturer ABi to perform Reverse Transcription […] (RT-PCR), to synthesis the complementary deoxyribonucleic acid (cDNA). Subsequently, utilize the TagManR Fast Universal Master Mix (2X) made by manufacturer ABi, to perform Quantitative Real-Time PCR (Q-PCR) on the inflammatory cytokines (IL-1β, IL-6, IL-8, and TNF-α), to detect the gene expression of the inflammation cytokines (IL-1β, IL-6, IL-8, and TNF-α).

[2] = test system: inflammation cytokines (IL-1β, IL-6, IL-8, and TNF-α); experiment: Inflammation cytokines protein expression experiment (ELISA of cornea protein); format: in vivo; conditions: rabbit, BAC-induced dry eye, treatment twice a day for 2 weeks
Source text: In this experiment, firstly, a Benzalkonium Chloride (BAC) is dipped onto the eyes of a rabbit 3 times a day for 3 weeks, to induce the rabbit eyes to produce inflammation, and to cause it to have symptoms of moderate dry eye syndrome. Then, utilize various combined compounds of artificial tear solution, HA, and EGCG to proceed with treatments, twice a day for 2 weeks. Then, extract the protein from the rabbit's cornea to perform Enzyme-Linked Immunosorbent Assay (ELISA), to detect the protein expression of the inflammation cytokines (IL-1β, IL-6, IL-8, and TNF-α), and to observe and determine whether the inflammation cytokines were reduced, through treatment of various compounds of artificial tear solution, HA, and EGCG

O=C(O[C@@H]1Cc2c(O)cc(O)cc2O[C@@H]1c1cc(O)c(O)c(O)c1)c1cc(O)c(O)c(O)c1 [EGCG, Epigallocatechin gallate]
Relative Transcription Ratios of the 4 inflammation factors (IL-1β, IL-6, IL-8, TNF-α) [1]: does have anti-inflammatory effect | concentration of inflammatory cytokines (IL-1β, IL-6, IL-8, and TNF-α) in cornea [2]: has the anti-inflammatory effect
